Laboratory results taken from ChEMBL document CHEMBL1201862, “PubChem BioAssay data set” (2004).
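Method: 48-hour compound exposure of cells in 96-well plates, five concentrations, linear interpolation of endpoints. GI50 is the concentration that inhibits growth by half.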 Activity calls are given as the source filed them. Cut-off read from the data, not from the text of the source: active = GI50 up to about 1.1 µM and inactive = higher.

What was measured:
Test in all cases: growth of human tumour cells (NCI), 48 h
[1] = tested on: A498
[2] = tested on: BT-549
[3] = tested on: CAKI-1
[4] = tested on: CCRF-CEM
[5] = tested on: COLO 205
[6] = tested on: DU-145
[7] = tested on: HCC 2998
[8] = tested on: HCT-116
[9] = tested on: HCT-15
[10] = tested on: HL-60
[11] = tested on: HOP-62
[12] = tested on: HOP-92
[13] = tested on: HT-29
[14] = tested on: Hs-578T
[15] = tested on: IGROV-1
[16] = tested on: K562
[17] = tested on: KM12
[18] = tested on: LOX IMVI
[19] = tested on: M14
[20] = tested on: MCF7
[21] = tested on: MDA-MB-231
[22] = tested on: MDA-MB-435
[23] = tested on: MDA-N
[24] = tested on: MOLT-4
[25] = tested on: Malme-3M
[26] = tested on: NCI-H226
[27] = tested on: NCI-H23
[28] = tested on: NCI-H460
[29] = tested on: NCI/ADR-RES
[30] = tested on: OVCAR-3
[31] = tested on: OVCAR-4
[32] = tested on: OVCAR-5
[33] = tested on: OVCAR-8
[34] = tested on: PC-3
[35] = tested on: RPMI-8226
[36] = tested on: RXF 393
[37] = tested on: SF-295
[38] = tested on: SK-MEL-28
[39] = tested on: SK-MEL-2
[40] = tested on: SK-MEL-5
[41] = tested on: SK-OV-3
[42] = tested on: SN12C
[43] = tested on: SNB-19
[44] = tested on: SNB-75
[45] = tested on: SR
[46] = tested on: SW-620
[47] = tested on: T47D
[48] = tested on: TK-10
[49] = tested on: U-251
[50] = tested on: UACC-257
[51] = tested on: UACC-62
[52] = tested on: UO-31
[53] = tested on: 786-0
[54] = tested on: A549
[55] = tested on: ACHN
[56] = tested on: EKVX
[57] = tested on: SF-268
[58] = tested on: SF-539

Which results are given for `CCn1c2ccccc2c2cc(NC(=O)c3c(C)[nH]c(=O)[nH]c3=S)ccc21`?
GI50 [1]: > 100 µM (inactive); GI50 [2]: 31 µM (inactive); GI50 [3]: > 100 µM (inactive); GI50 [4]: 29.2 µM (inactive); GI50 [5]: 22.9 µM (inactive); GI50 [6]: 42.1 µM (inactive); GI50 [7]: 47.6 µM (inactive); GI50 [8]: 43.3 µM (inactive); GI50 [9]: 41.2 µM; GI50 [10]: 37 µM (inactive); GI50 [11]: 77.8 µM (inactive); GI50 [12]: > 100 µM (inactive); GI50 [13]: 48.2 µM (inactive); GI50 [14]: 50.4 µM (inactive); GI50 [15]: > 10 µM (inactive); GI50 [16]: 28.8 µM (inactive); GI50 [17]: 18.5 µM (inactive); GI50 [18]: > 100 µM (inactive); GI50 [19]: 24.2 µM (inactive); GI50 [20]: 49.4 µM (inactive); GI50 [21]: 19.8 µM (inactive); GI50 [22]: 22.6 µM (inactive); GI50 [23]: 29.2 µM (inactive); GI50 [24]: 24.3 µM (inactive); GI50 [25]: 49.4 µM (inactive); GI50 [26]: 33 µM (inactive); GI50 [27]: 38 µM (inactive); GI50 [28]: 58.3 µM (inactive); GI50 [29]: > 100 µM (inactive); GI50 [30]: 35.7 µM (inactive); GI50 [31]: > 100 µM (inactive); GI50 [32]: 21.4 µM (inactive); GI50 [33]: > 100 µM (inactive); GI50 [34]: 31.8 µM (inactive); GI50 [35]: 40.6 µM (inactive); GI50 [36]: 35.6 µM (inactive); GI50 [37]: 61.4 µM (inactive); GI50 [38]: 33.3 µM (inactive); GI50 [39]: 51.3 µM (inactive); GI50 [40]: 42.1 µM (inactive); GI50 [41]: > 100 µM (inactive); GI50 [42]: 69 µM (inactive); GI50 [43]: 49.1 µM (inactive); GI50 [44]: > 100 µM (inactive); GI50 [45]: 41 µM (inactive); GI50 [46]: 31.7 µM (inactive); GI50 [47]: > 100 µM (inactive); GI50 [48]: 53.6 µM (inactive); GI50 [49]: 31.5 µM (inactive); GI50 [50]: 70.3 µM (inactive); GI50 [51]: 31.9 µM (inactive); GI50 [52]: 51.3 µM (inactive)

What does the source list for `O=C(O)C1CC(C2CCCCN2)CN2CCCCC12` (centres undefined)?
GI50 [53]: > 100 µM (inactive); GI50 [1]: > 100 µM (inactive); GI50 [54]: > 100 µM (inactive); GI50 [55]: > 100 µM (inactive); GI50 [2]: > 100 µM (inactive); GI50 [3]: > 100 µM (inactive); GI50 [4]: > 100 µM (inactive); GI50 [5]: > 100 µM (inactive); GI50 [6]: > 100 µM (inactive); GI50 [56]: > 100 µM (inactive); GI50 [7]: > 100 µM (inactive); GI50 [8]: > 100 µM (inactive); GI50 [9]: > 100 µM; GI50 [11]: > 100 µM (inactive); GI50 [12]: > 100 µM (inactive); GI50 [13]: > 100 µM (inactive); GI50 [14]: > 100 µM (inactive); GI50 [15]: > 100 µM (inactive); GI50 [16]: > 100 µM (inactive); GI50 [17]: > 100 µM (inactive); GI50 [18]: > 100 µM (inactive); GI50 [19]: > 100 µM (inactive); GI50 [20]: > 100 µM (inactive); GI50 [21]: > 100 µM (inactive); GI50 [22]: > 100 µM (inactive); GI50 [23]: > 100 µM (inactive); GI50 [24]: > 100 µM (inactive); GI50 [25]: > 100 µM (inactive); GI50 [26]: > 100 µM (inactive); GI50 [27]: > 100 µM (inactive); GI50 [28]: > 100 µM (inactive); GI50 [29]: > 100 µM (inactive); GI50 [30]: > 100 µM (inactive); GI50 [31]: > 100 µM (inactive); GI50 [32]: > 100 µM (inactive); GI50 [33]: > 100 µM (inactive); GI50 [34]: > 100 µM (inactive); GI50 [35]: > 100 µM (inactive); GI50 [36]: > 100 µM (inactive); GI50 [57]: > 100 µM (inactive); GI50 [37]: > 100 µM (inactive); GI50 [58]: 57.5 µM (inactive); GI50 [38]: > 100 µM (inactive); GI50 [39]: > 100 µM (inactive); GI50 [40]: > 100 µM (inactive); GI50 [41]: > 100 µM (inactive); GI50 [42]: > 100 µM (inactive); GI50 [43]: > 100 µM (inactive); GI50 [44]: > 100 µM (inactive); GI50 [45]: > 100 µM (inactive); GI50 [46]: > 100 µM (inactive); GI50 [47]: > 100 µM (inactive); GI50 [48]: > 100 µM (inactive); GI50 [49]: > 100 µM (inactive); GI50 [50]: > 100 µM (inactive); GI50 [51]: > 100 µM (inactive); GI50 [52]: > 100 µM (inactive)

`COc1cc2ccnc3c2c(c1OC)N(C)C=C3` was tested. Which GI50 [53] did it give?
The GI50 was 17.2 µM (inactive).

And the GI50 [1]?
The GI50 was 36.1 µM (inactive).

And the GI50 [54]?
The GI50 was 17.7 µM (inactive).

What about the GI50 [55] of the same compound?
The GI50 was 16.1 µM (inactive).

And the GI50 [2]?
Its GI50 is 33 µM (inactive).

And the GI50 [3]?
Its GI50 is 21.3 µM (inactive).

And the GI50 [5]?
Its GI50 is 20.5 µM (inactive).

And the GI50 [6]?
The GI50 was 34.5 µM (inactive).

What about the GI50 [56] of the same compound?
Its GI50 is 23.2 µM (inactive).

And the GI50 [7]?
The GI50 was 16.4 µM (inactive).

What about the GI50 [8] of the same compound?
The GI50 was 11 µM (inactive).

And the GI50 [9]?
Its GI50 is 26.9 µM.

What about the GI50 [11] of the same compound?
Its GI50 is 28.3 µM (inactive).

What about the GI50 [14] of the same compound?
The GI50 was 29.3 µM (inactive).

What about the GI50 [16] of the same compound?
The GI50 was 21.1 µM (inactive).

What about the GI50 [17] of the same compound?
The GI50 was 25.9 µM (inactive).

What about the GI50 [18] of the same compound?
The GI50 was 21.5 µM (inactive).

What about the GI50 [19] of the same compound?
The GI50 was 26.3 µM (inactive).

What about the GI50 [20] of the same compound?
Its GI50 is 16.6 µM (inactive).

And the GI50 [21]?
Its GI50 is 29.1 µM (inactive).

And the GI50 [22]?
The GI50 was 31.5 µM (inactive).

What about the GI50 [23] of the same compound?
Its GI50 is 19.1 µM (inactive).

And the GI50 [24]?
The GI50 was 30 µM (inactive).

What about the GI50 [26] of the same compound?
The GI50 was 21.2 µM (inactive).

What about the GI50 [27] of the same compound?
The GI50 was 19.4 µM (inactive).

What about the GI50 [28] of the same compound?
The GI50 was 14.6 µM (inactive).

And the GI50 [29]?
Its GI50 is 24.3 µM (inactive).

What about the GI50 [30] of the same compound?
The GI50 was 29.4 µM (inactive).

What about the GI50 [31] of the same compound?
The GI50 was 24.5 µM (inactive).

And the GI50 [32]?
Its GI50 is 33 µM (inactive).

And the GI50 [33]?
The GI50 was 26.5 µM (inactive).

What about the GI50 [34] of the same compound?
The GI50 was 31.9 µM (inactive).

And the GI50 [35]?
Its GI50 is 24.4 µM (inactive).

And the GI50 [36]?
Its GI50 is 25.1 µM (inactive).

And the GI50 [57]?
The GI50 was 35.2 µM (inactive).

What about the GI50 [37] of the same compound?
Its GI50 is 20.2 µM (inactive).

And the GI50 [38]?
Its GI50 is 32.7 µM (inactive).

And the GI50 [39]?
Its GI50 is 23.1 µM (inactive).

And the GI50 [41]?
Its GI50 is 16.5 µM (inactive).

What about the GI50 [42] of the same compound?
The GI50 was 30.4 µM (inactive).

And the GI50 [43]?
Its GI50 is 25.2 µM (inactive).

And the GI50 [44]?
Its GI50 is 33.6 µM (inactive).

And the GI50 [45]?
Its GI50 is 21.3 µM (inactive).

What about the GI50 [46] of the same compound?
The GI50 was 29.6 µM (inactive).

And the GI50 [47]?
Its GI50 is 32.3 µM (inactive).

What about the GI50 [48] of the same compound?
The GI50 was 35.3 µM (inactive).

And the GI50 [49]?
The GI50 was 35.2 µM (inactive).

What about the GI50 [50] of the same compound?
Its GI50 is 34.4 µM (inactive).

And the GI50 [51]?
The GI50 was 26.4 µM (inactive).

What about the GI50 [52] of the same compound?
Its GI50 is 14.2 µM (inactive).
